PMC8835499, “Challenging Approach to the Development of Novel Estrogen Receptor Modulators Based on the Chemical Properties of Guaiazulene” (International Journal of Molecular Sciences, 2022)

Target: T1, estrogen receptor α (ERα) (Homo sapiens, UniProt P03372)
T1 construct: gene ESR1; ERα LBD (human recombinant ERα)
T1 sequence (P03372 311-547 limits assumed): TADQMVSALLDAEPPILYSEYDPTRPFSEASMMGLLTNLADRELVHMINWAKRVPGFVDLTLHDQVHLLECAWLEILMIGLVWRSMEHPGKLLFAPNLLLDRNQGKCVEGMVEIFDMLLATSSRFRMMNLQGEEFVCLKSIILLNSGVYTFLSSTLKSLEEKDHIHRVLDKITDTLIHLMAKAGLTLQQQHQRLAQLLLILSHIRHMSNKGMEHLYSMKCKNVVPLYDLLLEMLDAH
Test: competitive radioligand binding assay with [3H][…]β-estradiol (nitrocellulose filtration)

Cc1cc(C=C(c2ccc(O)cc2)c2ccc(O)cc2)c2c(C)ccc(C(C)C)cc1-2 [Az-01, 4,4′-(2-(5-Isopropyl-3,8-dimethylazulen-1-yl)ethene-1,1-diyl)diphenol]
IC50: 1.22 nM
